Conditions in all cases: Compound concentration 25.0 uM, Protein concentration 2.0 uM
The target in assay [1] is T1, YEATS domain-containing protein 2 (Homo sapiens) (UniProt Q9ULM3).
T1 sequence (whole entry): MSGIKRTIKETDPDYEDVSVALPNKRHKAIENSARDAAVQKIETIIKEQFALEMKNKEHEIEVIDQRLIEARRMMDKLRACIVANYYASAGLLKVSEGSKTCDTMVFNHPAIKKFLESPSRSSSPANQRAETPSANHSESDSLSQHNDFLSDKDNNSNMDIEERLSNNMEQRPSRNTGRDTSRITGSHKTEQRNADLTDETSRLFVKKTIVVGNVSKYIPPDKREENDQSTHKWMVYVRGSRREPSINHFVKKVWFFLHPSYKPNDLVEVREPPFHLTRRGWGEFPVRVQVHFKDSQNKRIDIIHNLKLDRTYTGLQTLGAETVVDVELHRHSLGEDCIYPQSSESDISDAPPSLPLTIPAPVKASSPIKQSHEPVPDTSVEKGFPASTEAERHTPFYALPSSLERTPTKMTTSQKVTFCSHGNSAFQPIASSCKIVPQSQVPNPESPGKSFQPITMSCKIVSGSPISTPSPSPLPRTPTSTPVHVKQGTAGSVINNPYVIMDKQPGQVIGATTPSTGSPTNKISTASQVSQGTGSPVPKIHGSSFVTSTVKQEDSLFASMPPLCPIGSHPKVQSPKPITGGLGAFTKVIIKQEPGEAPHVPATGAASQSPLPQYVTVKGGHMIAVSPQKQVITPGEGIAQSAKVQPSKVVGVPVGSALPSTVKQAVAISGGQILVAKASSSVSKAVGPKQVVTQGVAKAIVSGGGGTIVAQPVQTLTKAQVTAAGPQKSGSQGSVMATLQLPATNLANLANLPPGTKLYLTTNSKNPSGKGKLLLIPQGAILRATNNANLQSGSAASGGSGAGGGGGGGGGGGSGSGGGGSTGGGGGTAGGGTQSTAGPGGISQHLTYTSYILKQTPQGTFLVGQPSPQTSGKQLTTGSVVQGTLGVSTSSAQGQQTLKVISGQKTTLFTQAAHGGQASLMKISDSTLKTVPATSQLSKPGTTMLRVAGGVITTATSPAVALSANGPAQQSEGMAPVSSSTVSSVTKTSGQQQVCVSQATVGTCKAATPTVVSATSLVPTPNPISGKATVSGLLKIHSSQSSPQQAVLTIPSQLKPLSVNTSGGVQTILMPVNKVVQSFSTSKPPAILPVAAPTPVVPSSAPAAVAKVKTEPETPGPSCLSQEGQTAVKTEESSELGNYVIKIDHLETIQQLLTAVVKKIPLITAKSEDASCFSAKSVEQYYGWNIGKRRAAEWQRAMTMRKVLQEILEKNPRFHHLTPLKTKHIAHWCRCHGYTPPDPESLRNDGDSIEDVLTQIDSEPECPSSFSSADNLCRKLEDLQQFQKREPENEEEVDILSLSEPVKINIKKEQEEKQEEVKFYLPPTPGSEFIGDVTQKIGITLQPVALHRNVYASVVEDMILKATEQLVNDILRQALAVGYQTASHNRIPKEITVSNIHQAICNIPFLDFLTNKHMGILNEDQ
Briefly: Thermal Shift Assay. Domain: start/stop M1-D141.

Assay [2] addresses YEATS domain-containing protein 4 (Homo sapiens) (UniProt O95619). Nature of the assay: Thermal Shift Assay. Domain: start/stop V16-K225.
Assay [3] concerns the target T2, Protein AF-9 (Homo sapiens) (UniProt P42568).
T2 sequence (whole entry): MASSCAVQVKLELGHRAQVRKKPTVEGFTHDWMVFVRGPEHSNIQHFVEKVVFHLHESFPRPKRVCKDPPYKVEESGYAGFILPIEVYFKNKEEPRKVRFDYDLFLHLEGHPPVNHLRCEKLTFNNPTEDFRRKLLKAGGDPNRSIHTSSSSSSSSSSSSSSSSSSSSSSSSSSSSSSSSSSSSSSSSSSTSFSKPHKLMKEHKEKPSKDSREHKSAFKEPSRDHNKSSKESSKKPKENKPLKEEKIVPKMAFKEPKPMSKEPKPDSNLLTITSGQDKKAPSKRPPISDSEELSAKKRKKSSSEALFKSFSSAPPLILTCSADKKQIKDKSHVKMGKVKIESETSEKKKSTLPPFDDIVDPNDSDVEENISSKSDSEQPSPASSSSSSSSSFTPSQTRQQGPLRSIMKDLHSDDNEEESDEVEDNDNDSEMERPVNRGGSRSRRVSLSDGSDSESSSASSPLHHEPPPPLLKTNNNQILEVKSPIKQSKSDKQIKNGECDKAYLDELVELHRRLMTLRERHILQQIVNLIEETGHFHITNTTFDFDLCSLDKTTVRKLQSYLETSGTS

In assay [4] the target is T3, Protein ENL (Homo sapiens) (UniProt Q03111).
T3 sequence (whole entry): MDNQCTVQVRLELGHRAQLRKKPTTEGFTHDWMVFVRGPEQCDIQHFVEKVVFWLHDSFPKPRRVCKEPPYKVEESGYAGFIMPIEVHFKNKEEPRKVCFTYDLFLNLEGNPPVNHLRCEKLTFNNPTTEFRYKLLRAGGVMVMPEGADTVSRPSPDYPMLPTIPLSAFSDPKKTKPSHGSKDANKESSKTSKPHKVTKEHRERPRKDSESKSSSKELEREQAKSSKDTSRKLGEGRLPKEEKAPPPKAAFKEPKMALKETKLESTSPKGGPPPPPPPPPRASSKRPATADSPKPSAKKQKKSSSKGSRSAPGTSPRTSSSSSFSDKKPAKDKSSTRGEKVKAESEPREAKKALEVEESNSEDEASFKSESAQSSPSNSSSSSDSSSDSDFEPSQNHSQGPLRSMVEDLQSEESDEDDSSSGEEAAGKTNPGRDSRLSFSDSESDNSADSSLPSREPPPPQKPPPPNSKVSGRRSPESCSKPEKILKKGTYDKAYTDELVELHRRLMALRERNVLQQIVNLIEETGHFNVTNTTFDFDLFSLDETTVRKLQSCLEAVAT
Briefly: Thermal Shift Assay. Domain: start/stop M1-A148.

YEATS domain-containing protein 4 (Homo sapiens), sequence (O95619 whole entry, the tested form may be a part): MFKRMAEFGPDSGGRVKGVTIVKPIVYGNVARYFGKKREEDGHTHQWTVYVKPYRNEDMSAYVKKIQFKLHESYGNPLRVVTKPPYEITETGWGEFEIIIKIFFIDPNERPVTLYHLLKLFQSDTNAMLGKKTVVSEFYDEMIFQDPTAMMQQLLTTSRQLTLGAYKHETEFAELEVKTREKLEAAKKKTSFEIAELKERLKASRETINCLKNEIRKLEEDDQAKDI

As for `CN(C)C(=O)c1ccc(-c2cc(C(=O)N[C@@H]3CCc4ccccc43)no2)cc1O`, the ΔTm in assay [1] is -0.01 c; in assay [2], -0.19 c; in assay [3], 5.15 c; in assay [4] it was 3.61 c.

For the origin of these results see ChEMBL document CHEMBL5058541, “EUbOPEN Chemogenomics Library 2 (NanoBRET)” (2022).
